Series [1] in a line: Resistance to proteolytic degradation by plasmin (nano-LC/MS). It counts as in vitro ADME. As to conditions: isolated enzyme plasmin; peptide 50 ng/ml, 37° C., plasmin 50 μg/ml, pH 7.4; after 4 h incubation; read-out: degraded with plasmin. The text has this: (§1) The following peptides were compared for resistance against proteolytic degradation: CXCL9 (74-103) with L-amino acids (=L-amino acid peptide); CXCL9 (74-103) with D-amino acids (=D-amino acid peptide) and Acetyl-OOOQONGOOHQOOOQQOVROSQRORQOOTT [SEQ ID NO:2] This is a peptide derived from CXCL9 (74-103) with an acetyl-group on the N-terminus, lysines replaced by ornithine and VL (at positions 88 and 89) replaced by QQ and serine (at position 97) also replaced by ornithine (=ornithine peptide).
(§2) Incubations were performed with peptides at 50 ng/ml and 37° C. for 5 minutes up to 24 hours with trypsin, plasmin or cathepsin G. After the incubation, the reaction was stopped through addition of trifluoroacetic acid (to reach a final pH<4) and purified by nano-LC with on-line detection of eluted peptides by mass spectrometry.
(§3) Sample buffer for incubations with plasmin: 50 mM Tris-HCl 0.5 M NaCl PH 7.4; final plasmin conc. 50 μg/ml Sample buffer for incubations with cathepsin G: 20 mM Tris-HCl+1 mM CaCl2 pH 7.4; final conc. Cathepsin G at 13 mU/litre.

In series [2] the target is plasmin (Homo sapiens, UniProt P00747). The description is as above. It counts as in vitro ADME. To be noted: peptide 50 ng/ml, 37° C., plasmin 50 μg/ml, pH 7.4.
Excerpt: as §1, §2, §3

In series [3] the target is T1, cathepsin G (Homo sapiens, UniProt P08311).
T1 sequence (P08311 21-244): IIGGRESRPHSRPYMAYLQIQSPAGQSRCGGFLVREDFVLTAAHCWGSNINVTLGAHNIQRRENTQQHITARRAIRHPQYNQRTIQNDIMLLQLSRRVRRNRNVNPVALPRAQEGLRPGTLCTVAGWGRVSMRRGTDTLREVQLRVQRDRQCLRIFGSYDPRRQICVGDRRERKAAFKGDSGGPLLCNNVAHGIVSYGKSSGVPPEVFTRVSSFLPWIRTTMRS
Description: Resistance to proteolytic degradation by cathepsin G (nano-LC/MS). It counts as in vitro ADME. As to conditions: peptide 50 ng/ml, 37° C., cathepsin G 13 mU/litre, pH 7.4.
Excerpt: as §1, §2, §3

Assay in series [4]: as above
Format: in vitro ADME. As to conditions: cathepsin G (isolated protease); peptide 50 ng/ml, 37° C., cathepsin G 13 mU/litre, pH 7.4; after 4 h; read-out: degraded with cathepsin G.
Excerpt: as §1, §2, §3

Series [5] has as its system plasmin. Kind of series: 50 mM Tris-HCl 0.5 M NaCl PH 7.4; final plasmin conc. 50 μg/ml. As to conditions: 37° C., up to 24 hours.
For series [6], the system named is trypsin. Kind of series: 100 mM Tris-HCl pH 8.5; final trypsin (from Sigma) conc. 250 ng/ml. As to conditions: 37° C., up to 24 hours.
Series [7] has as its system cathepsin G. Description: 20 mM Tris-HCl+1 mM CaCl2 pH 7.4; final conc. Cathepsin G at 13 mU/litre. To be noted: 37° C., up to 24 hours.
Series [8] relates to K. pneumonia. To be noted: preventive treatment / pre-treatment; cited from earlier work.

Non-standard residues stand in square brackets, D forms with d. Residues, ends and D or L forms follow the SMILES beside them. No end group written: not given here. Orn = NCCC[C@H](N)C(=O)O

plasmin (Homo sapiens, UniProt P00747), sequence (P00747 581-810 limits assumed, species assumed): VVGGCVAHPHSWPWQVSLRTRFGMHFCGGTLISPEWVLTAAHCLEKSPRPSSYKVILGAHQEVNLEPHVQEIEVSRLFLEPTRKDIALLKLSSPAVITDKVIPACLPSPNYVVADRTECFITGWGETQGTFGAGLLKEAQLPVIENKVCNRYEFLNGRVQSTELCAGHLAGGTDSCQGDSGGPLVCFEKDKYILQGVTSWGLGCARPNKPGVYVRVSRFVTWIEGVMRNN
plasmin (Homo sapiens, UniProt P00747), sequence (P00747 97-580 partner limits assumed, species assumed): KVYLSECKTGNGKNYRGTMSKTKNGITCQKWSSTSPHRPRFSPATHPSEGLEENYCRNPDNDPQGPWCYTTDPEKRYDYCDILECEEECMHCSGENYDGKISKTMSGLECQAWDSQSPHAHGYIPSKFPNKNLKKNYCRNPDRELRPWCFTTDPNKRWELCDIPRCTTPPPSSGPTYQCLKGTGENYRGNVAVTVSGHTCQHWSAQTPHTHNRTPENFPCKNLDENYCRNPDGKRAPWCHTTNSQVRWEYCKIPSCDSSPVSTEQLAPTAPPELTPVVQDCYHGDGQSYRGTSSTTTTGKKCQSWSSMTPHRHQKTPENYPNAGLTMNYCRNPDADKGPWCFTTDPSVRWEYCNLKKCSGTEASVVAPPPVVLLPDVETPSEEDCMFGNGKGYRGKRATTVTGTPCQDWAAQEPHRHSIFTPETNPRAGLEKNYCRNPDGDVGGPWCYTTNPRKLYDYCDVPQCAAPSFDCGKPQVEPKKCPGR

With `CC(=O)N[C@@H](CCCN)C(=O)N[C@@H](CCCN)C(=O)N[C@@H](CCCN)C(=O)N[C@@H](CCC(N)=O)C(=O)N[C@@H](CCCN)C(=O)N[C@@H](CC(N)=O)C(=O)NCC(=O)N[C@@H](CCCN)C(=O)N[C@@H](CCCN)C(=O)N[C@@H](Cc1c[nH]cn1)C(=O)N[C@@H](CCC(N)=O)C(=O)N[C@@H](CCCN)C(=O)N[C@@H](CCCN)C(=O)N[C@@H](CCCN)C(=O)N[C@@H](CCC(N)=O)C(=O)N[C@@H](CCC(N)=O)C(=O)N[C@@H](CCCN)C(=O)N[C@H](C(=O)N[C@@H](CCCNC(=N)N)C(=O)N[C@@H](CCCN)C(=O)N[C@@H](CO)C(=O)N[C@@H](CCC(N)=O)C(=O)N[C@@H](CCCNC(=N)N)C(=O)N[C@@H](CCCN)C(=O)N[C@@H](CCCNC(=N)N)C(=O)N[C@@H](CCC(N)=O)C(=O)N[C@@H](CCCN)C(=O)N[C@@H](CCCN)C(=O)N[C@H](C(=O)N[C@H](C(=O)O)[C@@H](C)O)[C@@H](C)O)C(C)C` [Ornithine peptide, Acetyl-OOOQONGOOHQOOOQQOVROSQRORQOOTT] (Ac-[Orn][Orn][Orn]Q[Orn]NG[Orn][Orn]HQ[Orn][Orn][Orn]QQ[Orn]VR[Orn]SQR[Orn]RQ[Orn][Orn]TT-OH; C-terminus assumed), in series [1], the metabolised at 4 h is above 70%. Besides, in series [2] (after 5 min), the “cleavage after arginine with plasmin” value is recorded as below 10%. Besides, the “cleavage with cathepsin G” value in series [3] (5 min up to 4 h incubation) was “no cleavage”.
For `CC(C)C[C@@H](NC(=O)[C@H](NC(=O)[C@@H](CCCCN)NC(=O)[C@@H](CCCCN)NC(=O)[C@@H](CCCCN)NC(=O)[C@@H](CCC(N)=O)NC(=O)[C@@H](Cc1c[nH]cn1)NC(=O)[C@@H](CCCCN)NC(=O)[C@@H](CCCCN)NC(=O)CNC(=O)[C@@H](CC(N)=O)NC(=O)[C@@H](CCCCN)NC(=O)[C@@H](CCC(N)=O)NC(=O)[C@@H](CCCCN)NC(=O)[C@@H](CCCCN)NC(=O)[C@H](N)CCCCN)C(C)C)C(=O)N[C@H](CCCCN)C(=O)N[C@@H](C(=O)N[C@H](CCCNC(=N)N)C(=O)N[C@H](CCCCN)C(=O)N[C@H](CO)C(=O)N[C@H](CCC(N)=O)C(=O)N[C@H](CCCNC(=N)N)C(=O)N[C@H](CO)C(=O)N[C@H](CCCNC(=N)N)C(=O)N[C@H](CCC(N)=O)C(=O)N[C@H](CCCCN)C(=O)N[C@H](CCCCN)C(=O)N[C@@H](C(=O)N[C@@H](C(=O)O)[C@H](C)O)[C@H](C)O)C(C)C` [D-amino acid peptide] (H-[dK][dK][dK][dQ][dK][dN]G[dK][dK][dH][dQ][dK][dK][dK][dV][dL][dK][dV][dR][dK][dS][dQ][dR][dS][dR][dQ][dK][dK][dT][dT]-OH; N-terminus and C-terminus assumed), the resistance to plasmin entry in series [2] (between 5 min and 8 hours) is “resistant”. The metabolised at 24 h, 50 ng/ml in series [3] (cathepsin G (isolated protease), after 24 h) is 68%. Moreover, the “degradation with cathepsin G” value in series [3] (up to 8 h) is on record as “less than 5%”.
On to “KKKQKNGKKHQKKKVLKVRKSQRSRQKKTT [CXCL9 (74-103)]”, for which the degradation with plasmin entry in series [2] (after 5 min) is given as “partial degraded”; in series [2] (after 30 minutes), “fully degradation”. For the same molecule, the metabolised at 4 h, 50 ng/ml in series [4] was above 90%. Besides, the “stability to cathepsin G” value in series [3] (up to 2 h) is recorded as “stable”.
Consider CXCL9 (74-103) with D-amino acids, for which the not cleaved result was “resistant to plasmin at incubations between 5 min and 8 hours” in series [5]; “fully resistant to trypsin at incubations from 5 min. up to 4 hours” in series [6].
Consider Acetyl-OOOQONGOOHQOOOQQOVROSQRORQOOTT, for which, in series [7], the not cleaved entry is “no cleavage with cathepsin G after 5 min up to 4 h incubation”.

B1: VAP-1/SSAO: an endothelial bound adhesion molecule with amine oxidase activity involved in neutrophil egress from the microvasculature (protein, UniProt Q16853 1-763, looked up)
Amine oxidase …: MNQKTILVLLILAVITIFALVCVLLVGRGGDGGEPSQLPHCPSVSPSAQPWTHPGQSQLFADLSREELTAVMRFLTQRLGPGLVDAAQARPSDNCVFSVELQLPPKAAALAHLDRGSPPPAREALAIVFFGRQPQPNVSELVVGPLPHPSYMRDVTVERHGGPLPYHRRPVLFQEYLDIDQMIFNRELPQASGLLHHCCFYKHRGRNLVTMTTAPRGLQSGDRATWFGLYYNISGAGFFLHHVGLELLVNHKALDPARWTIQKVFYQGRYYDSLAQLEAQFEAGLVNVVLIPDNGTGGSWSLKSPVPPGPAPPLQFYPQGPRFSVQGSRVASSLWTFSFGLGAFSGPRIFDVRFQGERLVYEISLQEALAIYGGNSPAAMTTRYVDGGFGMGKYTTPLTRGVDCPYLATYVDWHFLLESQAPKTIRDAFCVFEQNQGLPLRRHHSDLYSHYFGGLAETVLVVRSMSTLLNYDYVWDTVFHPSGAIEIRFYATGYISSAFLFGATGKYGNQVSEHTLGTVHTHSAHFKVDLDVAGLENWVWAEDMVFVPMAVPWSPEHQLQRLQVTRKLLEMEEQAAFLVGSATPRYLYLASNHSNKWGHPRGYRIQMLSFAGEPLPQNSSMARGFSWERYQLAVTQRKEEEPSSSSVFNQNDPWAPTVDFSDFINNETIAGKDLVAWVTAGFLHIPHAEDIPNTVTVGNGVGFFLRPYNFFDEDPSFYSADSIYFRGDQDAGACEVNPLACLPQAAACAPDLPAFSHGGFSHN
For B1, in series [8], the bacterial load entry was “increased” and the “neutrophil recruitment / migration” value is reported as “decreased”.

The record behind these values is patent US20250144177A1 (Katholieke Universiteit Leuven, priority 2022, published 2025).
